Data as given in ChEMBL document CHEMBL4765344, “Expanding the anticancer potential of 1,2,3-triazoles via simultaneously targeting Cyclooxygenase-2, 15-lipoxygenase and tumor-associated carbonic anhydrases” (Eur J Med Chem, 2020).

What was measured:
[1] = target: T1, Prostaglandin G/H synthase 1 (Ovis aries, UniProt P05979); test: Inhibition of ovine COX1 by colorimetric analysis
T1 sequence (P05979 whole entry): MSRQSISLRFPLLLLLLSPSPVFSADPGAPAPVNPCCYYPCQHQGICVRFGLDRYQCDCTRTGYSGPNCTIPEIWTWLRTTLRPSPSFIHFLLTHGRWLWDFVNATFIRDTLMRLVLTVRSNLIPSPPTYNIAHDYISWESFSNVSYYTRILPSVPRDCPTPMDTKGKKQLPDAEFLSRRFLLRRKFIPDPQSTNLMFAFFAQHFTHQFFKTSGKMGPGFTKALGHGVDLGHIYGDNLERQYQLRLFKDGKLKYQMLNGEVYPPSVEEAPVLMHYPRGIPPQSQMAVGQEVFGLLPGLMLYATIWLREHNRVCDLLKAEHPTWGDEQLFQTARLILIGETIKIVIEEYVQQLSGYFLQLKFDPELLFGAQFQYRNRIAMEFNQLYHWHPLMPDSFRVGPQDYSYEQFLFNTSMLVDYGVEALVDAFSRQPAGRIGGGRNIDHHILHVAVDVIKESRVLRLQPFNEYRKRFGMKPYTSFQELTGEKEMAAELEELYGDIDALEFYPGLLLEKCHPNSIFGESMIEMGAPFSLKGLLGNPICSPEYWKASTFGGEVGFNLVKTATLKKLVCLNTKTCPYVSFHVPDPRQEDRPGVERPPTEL

[2] = Inhibition of soya bean 15-LOX; set-up: species or system Glycine max
Carbonic anhydrase 1 = Carbonic anhydrase 1 (Homo sapiens, UniProt P00915); test: Inhibition of human CA1 by stopped-flow carbon dioxide hydration assay
Carbonic anhydrase 2 = Carbonic anhydrase 2 (Homo sapiens, UniProt P00918); test: Inhibition of human CA2 by stopped-flow carbon dioxide hydration assay
Carbonic anhydrase 9 = Carbonic anhydrase 9 (Homo sapiens, UniProt Q16790); test: Inhibition of human CA9 by stopped-flow carbon dioxide hydration assay
Carbonic anhydrase 12 = Carbonic anhydrase 12 (Homo sapiens, UniProt O43570); test: Inhibition of human CA12 by stopped-flow carbon dioxide hydration assay
WI-38 = test: Cytotoxicity against human WI-38 cells assessed as reduction in cell viability after 72 hrs by SRB assay; type: cell-based; conditions: WI-38, 72 h
A549 [3] = test: Antiproliferative activity against human A549 cells assessed as inhibition of cell growth at 100 microM measured after 72 hrs by SRB assay; type: functional
HepG2 [4] = test: Antiproliferative activity against human HepG2 cells assessed as inhibition of cell growth at 100 microM measured after 72 hrs by SRB assay; type: functional
MCF7 [5] = test: Antiproliferative activity against human MCF-7 cells assessed as inhibition of cell growth at 100 microM measured after 72 hrs by SRB assay; type: functional
MCF7 [6] = test: Antiproliferative activity against human MCF-7 cells assessed as cell growth inhibition measured after 72 hrs by SRB assay; type: functional, cell-based; conditions: MCF7, 72 h
[7] = Toxicity in ip dosed BALB/c mouse measured for 3 days; type: organism-based; conditions: in vivo, time 3 day
MCF7 [8] = test: Antitumor activity against human MCF7 cells xenografted in BALB/c mouse assessed as reduction in tumor volume at 23 mg/kg, ip administered thrice a week for 28 days by vernier caliper analysis; type: functional; conditions: time 28 day
[9] = Toxicity in BALB/c mouse xenografted with human MCF7 cells assessed as body weight at 23 mg/kg, ip administered thrice a week for 28 days measured on day 28 (reference value: 29.8 gms); type: organism-based; conditions: in vivo, 672 h, time 28 day
MCF7 [10] = test: Antiproliferative activity against human MCF-7 cells assessed as inhibition of cell growth at 100 microM measured after 72 hrs by SRB assay relative to celecoxib; type: functional; set-up: scale not given: the % may be the effect or the level left
A549 [11] = test: Antiproliferative activity against human A549 cells assessed as cell growth inhibition measured after 72 hrs by SRB assay; type: functional, cell-based; conditions: A549, 72 h
HepG2 [12] = test: Antiproliferative activity against human HepG2 cells assessed as cell growth inhibition measured after 72 hrs by SRB assay; type: functional, cell-based; conditions: HepG2, 72 h
A549 [13] = test: Induction of apoptosis in human A549 cells assessed as early apoptotic cells at IC50 measured after 24 hrs by annexin V-FITC staining based flow cytometry (reference value: 0.63%); type: functional
A549 [14] = test: Induction of apoptosis in human A549 cells assessed as late apoptotic cells at IC50 measured after 24 hrs by annexin V-FITC staining based flow cytometry (reference value: […]); type: functional
A549 [15] = test: Induction of apoptosis in human A549 cells assessed as necrotic cells at IC50 measured after 24 hrs by annexin V-FITC staining based flow cytometry (reference value: 1.01%); type: functional
A549 [16] = test: Induction of apoptosis in human A549 cells assessed as caspase-9 expression at IC50 by ELISA (reference value: […] +/- […] ng/ml); type: functional
A549 [17] = test: Induction of apoptosis in human A549 cells assessed as fold change in caspase-9 expression at IC50 by ELISA relative to control; type: functional
A549 [18] = test: Induction of apoptosis in human A549 cells assessed as Bax expression at IC50 by ELISA (reference value: 42.16 +/-6.2 pg/ml); type: functional
A549 [19] = test: Induction of apoptosis in human A549 cells assessed as fold change in Bax expression at IC50 by ELISA relative to control; type: functional
A549 [20] = test: Induction of apoptosis in human A549 cells assessed as Bcl2 expression at IC50 by ELISA (reference value: 9.04 +/-0.1 ng/ml); type: functional
A549 [21] = test: Induction of apoptosis in human A549 cells assessed as fold change in Bcl2 expression at IC50 by ELISA relative to control; type: functional
HT-29 = test: Cytotoxicity against human HT-29 cells assessed as reduction in cell viability incubated for 24 hrs by MTS assay; type: functional, cell-based; conditions: HT-29, 24 h
A549 [22] = test: Induction of cell cycle arrest in human A549 cells assessed as accumulation at pre-G1 phase at IC50 measured after 24 hrs by propidium iodide/RNase staining based flow cytometry (reference value: 1.93%); type: functional
A549 [23] = test: Induction of cell cycle arrest in human A549 cells assessed as accumulation at G0/G1 phase at IC50 measured after 24 hrs by propidium iodide/RNase staining based flow cytometry (reference value: 58.26%); type: functional
A549 [24] = test: Induction of cell cycle arrest in human A549 cells assessed as accumulation at G2/M phase at IC50 measured after 24 hrs by propidium iodide/RNase staining based flow cytometry (reference value: 9.86%); type: functional
A549 [25] = test: Induction of cell cycle arrest in human A549 cells assessed as accumulation at S phase at IC50 measured after 24 hrs by propidium iodide/RNase staining based flow cytometry (reference value: 31.88%); type: functional
A549 [26] = test: Induction of apoptosis in human A549 cells assessed as total apoptotic cells at IC50 measured after 24 hrs by Annexin V-FITC/propidium iodide staining based flow cytometry (reference value: 0.92%); type: functional
MCF7 [27] = test: Induction of apoptosis in human MCF-7 cells assessed as early apoptotic cells at IC50 measured after 24 hrs by Annexin V-FITC/propidium iodide staining based flow cytometry (reference value: 0.4%); type: functional
MCF7 [28] = test: Induction of apoptosis in human MCF-7 cells assessed as late apoptotic cells at IC50 measured after 24 hrs by Annexin V-FITC/propidium iodide staining based flow cytometry (reference value: […]); type: functional
MCF7 [29] = test: Induction of apoptosis in human MCF-7 cells assessed as necrotic cells at IC50 measured after 24 hrs by Annexin V-FITC/propidium iodide staining based flow cytometry (reference value: 1.27%); type: functional
MCF7 [30] = test: Induction of apoptosis in human MCF7 cells assessed as caspase-9 expression at IC50 by ELISA (reference value: 1.77 +/- 0.1 ng/ml); type: functional
MCF7 [31] = test: Induction of apoptosis in human MCF7 cells assessed as fold change in caspase-9 expression at IC50 by ELISA relative to control; type: functional
MCF7 [32] = test: Induction of apoptosis in human MCF7 cells assessed as Bax expression at IC50 by ELISA (reference value: 45.46 +/- 3.6 pg/ml); type: functional
MCF7 [33] = test: Induction of apoptosis in human MCF7 cells assessed as fold change in Bax expression at IC50 by ELISA relative to control; type: functional
MCF7 [34] = test: Induction of apoptosis in human MCF7 cells assessed as Bcl-2 expression at IC50 by ELISA (reference value: 7.49 +/- 0.1 ng/ml); type: functional
MCF7 [35] = test: Induction of apoptosis in human MCF7 cells assessed as fold change in Bcl-2 expression at IC50 by ELISA relative to control; type: functional
THP-1 = test: Cytotoxicity against PMA/LPS-challenged human THP1 cells assessed as reduction in cell viability incubated for 24 hrs by MTS assay; type: functional, cell-based; conditions: THP-1, 24 h
MCF7 [36] = test: Induction of cell cycle arrest in human MCF7 cells assessed as accumulation at pre-G1 phase at IC50 measured after 24 hrs by propidium iodide/RNase staining based flow cytometry (reference value: 1.96%); type: functional
MCF7 [37] = test: Induction of cell cycle arrest in human MCF7 cells assessed as accumulation at G0/G1 phase at IC50 measured after 24 hrs by propidium iodide/RNase staining based flow cytometry (reference value: 51.72%); type: functional
MCF7 [38] = test: Induction of cell cycle arrest in human MCF7 cells assessed as accumulation at G2/M phase at IC50 measured after 24 hrs by propidium iodide/RNase staining based flow cytometry (reference value: 18.4%); type: functional
MCF7 [39] = test: Induction of cell cycle arrest in human MCF7 cells assessed as accumulation at S phase at IC50 measured after 24 hrs by propidium iodide/RNase staining based flow cytometry (reference value: 29.88%); type: functional
MCF7 [40] = test: Induction of cell cycle arrest in human MCF7 cells assessed as reduction in accumulation at G0/G1 phase at IC50 measured after 24 hrs by propidium iodide/RNase staining based flow cytometry relative to control; type: functional
MCF7 [41] = test: Induction of cell cycle arrest in human MCF7 cells assessed as increase in accumulation at G2/M phase at IC50 measured after 24 hrs by propidium iodide/RNase staining based flow cytometry relative to control; type: functional
MCF7 [42] = test: Induction of cell cycle arrest in human MCF7 cells assessed as increase in accumulation at pre-G1 phase at IC50 measured after 24 hrs by propidium iodide/RNase staining based flow cytometry relative to control; type: functional
MCF7 [43] = test: Induction of apoptosis in human MCF-7 cells assessed as total apoptotic cells at IC50 measured after 24 hrs by Annexin V-FITC/propidium iodide staining based flow cytometry (reference value: 0.69%); type: functional
MCF7 [44] = test: Induction of apoptosis in human MCF-7 cells assessed as increase in total apoptotic cells at IC50 measured after 24 hrs by Annexin V-FITC/propidium iodide staining based flow cytometry relative to 5-FU; type: functional

Carbonic anhydrase 1, sequence (P00915 whole entry): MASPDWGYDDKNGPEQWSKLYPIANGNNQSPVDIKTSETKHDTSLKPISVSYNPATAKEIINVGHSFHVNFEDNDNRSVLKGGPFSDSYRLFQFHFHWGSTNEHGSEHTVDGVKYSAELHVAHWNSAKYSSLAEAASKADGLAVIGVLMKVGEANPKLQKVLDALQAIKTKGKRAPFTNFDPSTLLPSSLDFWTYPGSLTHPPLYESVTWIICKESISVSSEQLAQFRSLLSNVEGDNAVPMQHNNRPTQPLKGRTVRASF
Carbonic anhydrase 12, sequence (O43570 whole entry): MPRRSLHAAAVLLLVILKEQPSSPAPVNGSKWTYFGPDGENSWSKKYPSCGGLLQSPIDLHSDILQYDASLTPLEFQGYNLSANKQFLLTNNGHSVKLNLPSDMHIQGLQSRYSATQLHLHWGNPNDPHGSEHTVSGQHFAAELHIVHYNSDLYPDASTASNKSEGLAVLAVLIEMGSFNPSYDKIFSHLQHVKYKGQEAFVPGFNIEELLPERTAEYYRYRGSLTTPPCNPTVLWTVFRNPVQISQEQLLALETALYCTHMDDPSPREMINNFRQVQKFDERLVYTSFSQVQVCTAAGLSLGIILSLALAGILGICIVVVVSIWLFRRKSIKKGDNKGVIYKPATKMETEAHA

SMILES | IC50 [1] [µM] | IC50 [2] [nM] | Ki (Carbonic anhydrase 1) [µM] | Ki (Carbonic anhydrase 2) [nM] | Ki (Carbonic anhydrase 9) [µM] | Ki (Carbonic anhydrase 12) [nM] | IC50 (WI-38) [µM] | inhibition at 100 µM (A549 [3]) [%] | inhibition at 100 µM (HepG2 [4]) [%] | inhibition at 100 µM (MCF7 [5]) [%] | IC50 (MCF7 [6]) [nM] | IC50 (A549 [11]) [µM] | IC50 (HepG2 [12]) [µM] | IC50 (HT-29) [µM] | also measured
Cc1c(-c2nn(-c3ccccc3)cc2/C=N/O)nnn1-c1ccc(C(=O)O)cc1 | 12.4 | 1290 | 4.63 | 239 | 2.25 | 154 | 379 | 12.3 | 7.68 | 83.4 | 3200 |  |  |  | LD50 at 72 h [7]: 61.7 mg/kg; Activity (MCF7 [8]): 0.45 cm3; Activity [9]: 27.3 g; Activity (MCF7 [10]): 80%
C/C(=N\Nc1nc(-c2ccc(Cl)cc2)cs1)c1nnn(-c2ccc(S(N)(=O)=O)cc2)c1C | 12.4 | 1340 | 0.252 | 14.1 | 7.89 | 13.4 | 388 | 68.1 | 59 | 37.2 |  | 28.5 | 72.4 | 87.4 | Activity (A549 [13]): 9.15%; Activity (A549 [14]): 19.59%; Activity (A549 [15]): 2.48%; Activity (A549 [16]): 12.69 ng/mL; fold change (FC) (A549 [17]): 10.56; Activity (A549 [18]): 329.7 pg/mL; fold change (FC) (A549 [19]): 7.82; Activity (A549 [20]): 4.95 ng/mL; fold change (FC) (A549 [21]): 0.51; Activity (A549 [22]): 31.22%; Activity (A549 [23]): 31.61%; Activity (A549 [24]): 44.85%; Activity (A549 [25]): 23.54%; Activity (A549 [26]): 28.74%
C/C(=N\Nc1nc(-c2ccc(Cl)cc2)cs1)c1nnn(-c2ccc(Cl)cc2)c1C | 11.9 | 1680 | > 100 | > 100000 | > 100 | > 100000 | 379 | 77.5 | 74.4 | 91.3 | 2690 | 8.9 | 2.37 | 36.5 | Activity (MCF7 [27]): 5.88%; Activity (MCF7 [28]): 11.29%; Activity (MCF7 [29]): 2.19%; Activity (MCF7 [30]): 13.02 ng/mL; fold change (FC) (MCF7 [31]): 7.36; Activity (MCF7 [32]): 227.2 pg/mL; fold change (FC) (MCF7 [33]): 4.99; Activity (MCF7 [34]): 4.02 ng/mL; fold change (FC) (MCF7 [35]): 0.54; IC50 (THP-1): 133 µM; Activity (MCF7 [36]): 19.36%; Activity (MCF7 [37]): 36.41%; Activity (MCF7 [38]): 38.7%; Activity (MCF7 [39]): 24.89%; fold change (FC) (MCF7 [40]): 1.4; fold change (FC) (MCF7 [41]): 2.1; fold change (FC) (MCF7 [42]): 9.9; Activity (MCF7 [43]): 17.17%; Activity (MCF7 [44]): 70%
